What was measured:
[1] = system: Caco2, BEAS-2B, H292, and HepG2 cells; assay: Cytotoxicity assays of probe, metabolite and inhibitor; type: cell-based, human; details: all tested mammalian cells
[2] = system: CYP1A1 in Caco2, BEAS-2B, H292, and HepG2 cells; assay: Functional imaging of CYP1A1 in living cells; type: cell-based, human; details: 100 μmol/L, 1 h pre-incubation
[3] = molecular target: T1, HDB-EtCl O-dechloroethylation (CYP1A1) in human liver microsomes (Homo sapiens, UniProt P04798); assay: Chemical inhibition assay of HDB-EtCl O-dechloroethylation in HLMs; details: ABT 500 μmol/L, resveratrol 100 μmol/L, others 1-10 μmol/L
T1 sequence (P04798 1-512): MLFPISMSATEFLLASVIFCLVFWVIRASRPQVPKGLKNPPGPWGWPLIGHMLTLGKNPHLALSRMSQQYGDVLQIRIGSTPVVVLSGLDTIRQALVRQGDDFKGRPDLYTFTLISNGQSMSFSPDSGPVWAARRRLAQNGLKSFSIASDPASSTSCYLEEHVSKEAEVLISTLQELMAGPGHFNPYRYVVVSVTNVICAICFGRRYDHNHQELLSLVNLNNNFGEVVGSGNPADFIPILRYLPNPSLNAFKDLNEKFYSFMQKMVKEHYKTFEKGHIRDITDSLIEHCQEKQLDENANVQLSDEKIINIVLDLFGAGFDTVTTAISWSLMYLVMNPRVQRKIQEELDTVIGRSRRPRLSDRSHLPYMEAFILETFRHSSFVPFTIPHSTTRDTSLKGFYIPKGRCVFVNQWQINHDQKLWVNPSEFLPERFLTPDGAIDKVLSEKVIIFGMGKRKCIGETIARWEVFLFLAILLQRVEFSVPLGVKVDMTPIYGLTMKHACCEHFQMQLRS

[4] = system: DSS-induced ulcerative colitis mice; assay: DSS-induced ulcerative colitis in mice; type: in vivo, mouse
LPS-induced ALI mice = assay: LPS-induced acute lung injury in mice; type: in vivo, mouse

Oc1ccc(/C=C/c2cc(O)cc(O)c2)cc1 [resveratrol]
cytotoxicity [1]: weak cytotoxicity | blocking of HDB-EtCl red-channel fluorescent signals in cells [2]: completely blocked | inhibition of HDB-EtCl O-dechloroethylation in HLMs [3]: completely blocked

O=C(O)c1cc(/N=N/c2ccc(S(=O)(=O)Nc3ccccn3)cc2)ccc1O [SASP, salazosulfapyridine]
elevated IL-1β, TNF-α, IL-6, IFN-γ in intestinal tissues ([4]; ELISA, oral administration): effectively mitigated | colon histopathological abnormities (H&E) ([4]; LAC-7 20 and 40 mg/kg, SASP 200 mg/kg): largely restored | shortening of colon length by DSS ([4]; LAC-7 20 and 40 mg/kg, SASP 200 mg/kg, oral): significantly reversed | expression of tight junction proteins Occludin and ZO-1 in intestine ([4]; immunofluorescence): significantly increased

C[C@@H]1C[C@H]2[C@@H]3CCC4=CC(=O)C=C[C@]4(C)[C@@]3(F)[C@@H](O)C[C@]2(C)[C@@]1(O)C(=O)CO [Dex, dexamethasone]
lung injury scores (LPS-induced ALI mice; LAC-7 20 and 40 mg/kg, Dex 5 mg/kg): significantly reduce | Occludin immunofluorescence intensity in lung (LPS-induced ALI mice; mouse, in vivo): enhanced | ZO-1 immunofluorescence intensity in lung (LPS-induced ALI mice; oral administration): significantly increased | total cell count in BALF (LPS-induced ALI mice; vs LPS-induced ALI mice): significantly decreased

Nn1nnc2ccccc21 [ABT, 1-aminobenzotriazole]
inhibition of HDB-EtCl O-dechloroethylation in HLMs [3]: completely blocked

Source: paper PMC11873638 (Acta Pharmaceutica Sinica. B, 2024)
